Test results from the NIST ThermoML archive (doi:10.1021/je1003065).
± gives the expanded uncertainty stated by the source.

Assay: mn = molality of the nth substance listed, in mol/kg
Conditions: Liquid, Vibrating tube method

Compound: [Br-].[Li+] [lithium bromide] + CCO
- mass density (298.15 K, 60024 kPa, m1 = 0.9499): 885.07 ± 1.8 kg/m3
- mass density (298.15 K, 69784 kPa, m1 = 0.2335): 847.83 ± 1.8 kg/m3
- mass density (298.15 K, 69784 kPa, m1 = 0.9499): 890.31 ± 1.8 kg/m3
- mass density (298.15 K, 69931 kPa, m1 = 0.5972): 869.87 ± 1.8 kg/m3
- mass density (298.15 K, 69993 kPa, m1 = 1.462): 920.05 ± 1.9 kg/m3
- mass density (298.15 K, 79215 kPa, m1 = 0.9499): 895.14 ± 1.8 kg/m3
- mass density (298.15 K, 79970 kPa, m1 = 2.272): 969.11 ± 1.9 kg/m3
- mass density (298.15 K, 80014 kPa, m1 = 2.833): 998.77 ± 2 kg/m3
- mass density (298.15 K, 80151 kPa, m1 = 0.5972): 875.11 ± 1.8 kg/m3
- mass density (298.15 K, 89921 kPa, m1 = 0.2335): 857.88 ± 1.8 kg/m3
- mass density (298.15 K, 89926 kPa, m1 = 0.9499): 900.43 ± 1.9 kg/m3
- mass density (298.15 K, 89927 kPa, m1 = 2.833): 1003.47 ± 2 kg/m3
- mass density (298.15 K, 89963 kPa, m1 = 0.5972): 879.79 ± 1.8 kg/m3
- mass density (298.15 K, 99468 kPa, m1 = 0.2335): 862.11 ± 1.8 kg/m3
- mass density (298.15 K, 99739 kPa, m1 = 1.462): 933.99 ± 1.9 kg/m3
- mass density (298.15 K, 99874 kPa, m1 = 0.5972): 884.17 ± 1.9 kg/m3
- mass density (298.15 K, 99968 kPa, m1 = 2.833): 1008.08 ± 2 kg/m3
- mass density (298.15 K, 99975 kPa, m1 = 0.9499): 905.24 ± 1.9 kg/m3
- mass density (298.16 K, 1341 kPa, m1 = 1.462): 876.32 ± 1.8 kg/m3
- mass density (298.16 K, 9986 kPa, m1 = 2.833): 958.39 ± 1.9 kg/m3
- mass density (298.16 K, 20192 kPa, m1 = 0.5972): 838.95 ± 1.7 kg/m3
- mass density (298.16 K, 39784 kPa, m1 = 0.2335): 830.01 ± 1.7 kg/m3
- mass density (298.16 K, 49924 kPa, m1 = 2.833): 983.25 ± 2 kg/m3
- mass density (298.16 K, 89994 kPa, m1 = 1.462): 929.76 ± 1.9 kg/m3
- mass density (298.17 K, 9947 kPa, m1 = 1.462): 882.69 ± 1.8 kg/m3
- mass density (298.17 K, 59942 kPa, m1 = 0.2335): 842.36 ± 1.7 kg/m3
- mass density (298.17 K, 69994 kPa, m1 = 3.368): 1020.58 ± 2 kg/m3
- mass density (298.17 K, 80053 kPa, m1 = 1.462): 925.1 ± 1.9 kg/m3
- mass density (298.18 K, 2703 kPa, m1 = 3.368): 980.82 ± 2 kg/m3
- mass density (298.18 K, 5041 kPa, m1 = 3.368): 982.47 ± 2 kg/m3
- mass density (298.18 K, 5165 kPa, m1 = 2.272): 925.09 ± 1.9 kg/m3
- mass density (298.18 K, 9642 kPa, m1 = 2.272): 928.25 ± 1.9 kg/m3
- mass density (298.18 K, 9735 kPa, m1 = 3.368): 985.72 ± 2 kg/m3
- mass density (298.18 K, 9947 kPa, m1 = 0.5972): 831.46 ± 1.7 kg/m3
- mass density (298.18 K, 19511 kPa, m1 = 3.368): 992.17 ± 2 kg/m3
- mass density (298.18 K, 29936 kPa, m1 = 3.368): 998.66 ± 2 kg/m3
- mass density (298.18 K, 40157 kPa, m1 = 3.368): 1004.65 ± 2 kg/m3
- mass density (298.18 K, 49943 kPa, m1 = 3.368): 1010.11 ± 2 kg/m3
- mass density (298.19 K, 2166 kPa, m1 = 2.272): 922.88 ± 1.9 kg/m3
- mass density (298.19 K, 20358 kPa, m1 = 1.462): 890.05 ± 1.8 kg/m3
- mass density (298.2 K, 20184 kPa, m1 = 2.272): 935.31 ± 1.9 kg/m3
- mass density (298.2 K, 59916 kPa, m1 = 3.368): 1015.42 ± 2 kg/m3
- mass density (313.09 K, 4759 kPa, m1 = 0.5972): 815.39 ± 1.6 kg/m3
- mass density (313.11 K, 1319 kPa, m1 = 2.272): 910.08 ± 1.8 kg/m3
- mass density (313.11 K, 2109 kPa, m1 = 1.462): 864.85 ± 1.7 kg/m3
- mass density (313.11 K, 4863 kPa, m1 = 2.272): 912.94 ± 1.8 kg/m3
- mass density (313.11 K, 9792 kPa, m1 = 0.5972): 819.49 ± 1.6 kg/m3
- mass density (313.13 K, 5147 kPa, m1 = 1.462): 867.25 ± 1.7 kg/m3
- mass density (313.13 K, 19554 kPa, m1 = 0.5972): 827.15 ± 1.7 kg/m3
- mass density (313.14 K, 5102 kPa, m1 = 2.833): 943.28 ± 1.9 kg/m3
- mass density (313.14 K, 9982 kPa, m1 = 2.272): 916.81 ± 1.8 kg/m3
- mass density (313.14 K, 19956 kPa, m1 = 0.2335): 804.92 ± 1.6 kg/m3
- mass density (313.14 K, 20135 kPa, m1 = 2.272): 924.35 ± 1.9 kg/m3
- mass density (313.14 K, 29993 kPa, m1 = 2.272): 931.18 ± 1.9 kg/m3
- mass density (313.14 K, 40450 kPa, m1 = 2.272): 937.95 ± 1.9 kg/m3
- mass density (313.14 K, 50014 kPa, m1 = 0.2335): 826.45 ± 1.7 kg/m3
- mass density (313.14 K, 59926 kPa, m1 = 2.833): 978.99 ± 2 kg/m3
- mass density (313.15 K, 1021 kPa, m1 = 2.833): 940.06 ± 1.9 kg/m3
- mass density (313.15 K, 1045 kPa, m1 = 0.9499): 833.87 ± 1.7 kg/m3
- mass density (313.15 K, 2012 kPa, m1 = 0.2335): 789.9 ± 1.6 kg/m3
- mass density (313.15 K, 5003 kPa, m1 = 0.9499): 837.08 ± 1.7 kg/m3
- mass density (313.15 K, 5028 kPa, m1 = 0.2335): 792.77 ± 1.6 kg/m3
- mass density (313.15 K, 9909 kPa, m1 = 1.462): 870.96 ± 1.8 kg/m3
- mass density (313.15 K, 9978 kPa, m1 = 2.833): 947 ± 1.9 kg/m3
- mass density (313.15 K, 9985 kPa, m1 = 0.9499): 841.04 ± 1.7 kg/m3
- mass density (313.15 K, 19924 kPa, m1 = 0.9499): 848.66 ± 1.7 kg/m3
- mass density (313.15 K, 19994 kPa, m1 = 1.462): 878.53 ± 1.8 kg/m3
- mass density (313.15 K, 29451 kPa, m1 = 2.833): 960.7 ± 1.9 kg/m3
- mass density (313.15 K, 29924 kPa, m1 = 0.2335): 812.49 ± 1.6 kg/m3
- mass density (313.15 K, 29935 kPa, m1 = 0.9499): 855.96 ± 1.7 kg/m3
- mass density (313.15 K, 29958 kPa, m1 = 0.5972): 834.89 ± 1.7 kg/m3
- mass density (313.15 K, 29979 kPa, m1 = 1.462): 885.66 ± 1.8 kg/m3
- mass density (313.15 K, 39844 kPa, m1 = 0.5972): 841.83 ± 1.7 kg/m3
- mass density (313.15 K, 40021 kPa, m1 = 0.9499): 862.92 ± 1.8 kg/m3
- mass density (313.15 K, 49925 kPa, m1 = 1.462): 898.82 ± 1.8 kg/m3
- mass density (313.15 K, 49925 kPa, m1 = 2.272): 943.67 ± 1.9 kg/m3
- mass density (313.15 K, 49963 kPa, m1 = 0.5972): 848.54 ± 1.7 kg/m3
- mass density (313.15 K, 49968 kPa, m1 = 2.833): 973.38 ± 1.9 kg/m3
- mass density (313.15 K, 50035 kPa, m1 = 0.9499): 869.45 ± 1.8 kg/m3
- mass density (313.15 K, 59623 kPa, m1 = 1.462): 904.69 ± 1.8 kg/m3
- mass density (313.15 K, 59831 kPa, m1 = 0.5972): 854.67 ± 1.8 kg/m3
- mass density (313.15 K, 60002 kPa, m1 = 0.2335): 832.74 ± 1.7 kg/m3
- mass density (313.15 K, 60047 kPa, m1 = 0.9499): 875.6 ± 1.8 kg/m3
- mass density (313.15 K, 69784 kPa, m1 = 0.9499): 881.21 ± 1.8 kg/m3
- mass density (313.15 K, 69784 kPa, m1 = 2.833): 984.26 ± 2 kg/m3
- mass density (313.15 K, 69928 kPa, m1 = 1.462): 910.56 ± 1.9 kg/m3
- mass density (313.15 K, 69997 kPa, m1 = 0.5972): 860.59 ± 1.8 kg/m3
- mass density (313.15 K, 79828 kPa, m1 = 0.5972): 865.9 ± 1.8 kg/m3
- mass density (313.15 K, 79877 kPa, m1 = 1.462): 915.87 ± 1.9 kg/m3
- mass density (313.15 K, 79935 kPa, m1 = 0.9499): 886.68 ± 1.8 kg/m3
- mass density (313.15 K, 80042 kPa, m1 = 0.2335): 844.05 ± 1.8 kg/m3
- mass density (313.15 K, 89924 kPa, m1 = 0.2335): 848.99 ± 1.8 kg/m3
- mass density (313.15 K, 89925 kPa, m1 = 2.833): 994.32 ± 2 kg/m3
- mass density (313.15 K, 89926 kPa, m1 = 1.462): 920.86 ± 1.9 kg/m3
- mass density (313.15 K, 89986 kPa, m1 = 0.9499): 891.71 ± 1.9 kg/m3
- mass density (313.15 K, 89993 kPa, m1 = 0.5972): 870.99 ± 1.8 kg/m3
- mass density (313.15 K, 99841 kPa, m1 = 0.5972): 875.52 ± 1.9 kg/m3
- mass density (313.15 K, 99954 kPa, m1 = 0.9499): 896.31 ± 1.9 kg/m3
- mass density (313.15 K, 99985 kPa, m1 = 0.2335): 853.58 ± 1.8 kg/m3
- mass density (313.15 K, 99985 kPa, m1 = 2.833): 999.09 ± 2 kg/m3
- mass density (313.16 K, 10023 kPa, m1 = 0.2335): 796.94 ± 1.6 kg/m3
- mass density (313.16 K, 19926 kPa, m1 = 2.833): 954.23 ± 1.9 kg/m3
- mass density (313.16 K, 39715 kPa, m1 = 1.462): 892.26 ± 1.8 kg/m3
- mass density (313.16 K, 40032 kPa, m1 = 0.2335): 819.73 ± 1.7 kg/m3
- mass density (313.16 K, 59995 kPa, m1 = 2.272): 949.4 ± 1.9 kg/m3
